Each structure is given as a SMILES string. Counter-ions that a name gives are not always drawn.

The target in the first assay is CDK2/CCNE1 (Homo sapiens, UniProt P24941). Description: CDK2 homogeneous time-resolved fluorescence (HTRF) assay. Type of assay: biochemical. The settings on record: 3 nM CDK2/CCNE1, 1 mM ATP, 50 nM ULight-eIF4E-binding protein 1 (Thr37/46) peptide, 60 min at 23° C.; read-out: CDK2/CCNE IC50 <25 nM. The protocol:
A CDK homogeneous time-resolved fluorescence (HTRF) assay was used to assess the potency of the compounds described herein.
To an untreated 384-well microtiter plate (ProxiPlate) was added 100 nL 100× test compound in DMSO and 5 μL 2×CDK enzyme in assay buffer (50 mM HEPES, 1 mM EGTA, 10 mM MgCl2, 0.01% Tween 20, 2 mM DTT). The plate was centrifuged at 800 RPM for 1 min then incubated for 20 min at 23° C. 2.5 μL per well of 4×ATP and 2.5 μL 4×ULight™-eIF4E-binding protein 1 (Thr37/46) Peptide) substrate were added to all wells. After addition, the plates were centrifuged at 800 RPM for 1 min. The plates were incubated at 23° C. for 60 min. 5 μL per well 3×EDTA solution were added to each well to stop the reaction. 2.5 μL 7×LANCE Ultra Europium-anti-phospho-eTF4E-binding protein 1 (Thr37/46 antibody) were added to each well and the plate was centrifuged for 1 min at 800 RPM. The plate was incubated for 60 min at 23° C. Fluorescence was read at 340 nm excitation and 665 nm emission on an EnVision 2105 fluorescence reader. The final concentrations of reagents in the activity assay were 3 nM CDK2/CCNE1, 1 mM ATP, 50 nM ULight™-eIF4E-binding protein 1 (Thr37/46) Peptide substrate, 1% DMSO, 10 mM EDTA, and 2 nM LANCE Ultra Europium-anti-phospho-eTF4E-binding protein 1 (Thr37/46).
Dose-response titrations were conducted by using an 11-point, three-fold serial dilution scheme typically starting at 1 μM. Signals were reported as fluorescence units at 665 nm or the ratio of fluorescence units at 665 nm/fluorescence units at 615 nm. Signals are referred to below as “Lance signals”.
Using this assay, the IC50 values of example compounds were determined.
A general note: In TR-FRET formats the signal depends on donor and acceptor labels being close together.
As for `OCCc1cccc(Nc2ncc3cnn(CC4CCCCC4)c3n2)c1` [Compound 35, 2-(3-((1-(cyclohexylmethyl)-1H-pyrazolo[3,4-d]pyrimidin-6-yl)amino)phenyl)ethan-1-ol], the IC50 was less than 25 nM.

For the molecule `CS(=O)(=O)c1ccc(Nc2ncc3cnn(C4CCC(C#N)CC4)c3n2)cc1` (single isomer, unassigned) [Compound 32, 4-(6-((4-(methylsulfonyl)phenyl)amino)-1H-pyrazolo[3,4-d]pyrimidin-1-yl)cyclohexane-1-carbonitrile], the IC50 is less than 25 nM.

Consider `C=CS(=O)(=O)c1ccc(Nc2ncc3cnn(CC4CCCCC4)c3n2)cn1` [Compound 34, 1-(cyclohexylmethyl)-N-(6-(vinylsulfonyl)pyridin-3-yl)-1H-pyrazolo[3,4-d]pyrimidin-6-amine], for which the IC50 is less than 25 nM.

For `OCc1cccc(Nc2ncc3cnn(CC4CCCCC4)c3n2)c1` [Compound 20, (3-((1-(cyclohexylmethyl)-1H-pyrazolo[3,4-d]pyrimidin-6-yl)amino)phenyl)methanol], the IC50 is less than 25 nM.

As to `CS(=O)(=O)c1ccc(Nc2ncc3cnn(C[C@H]4CC[C@@H](CCl)CC4)c3n2)cc1` [Compound 49, 1-(((1S,4S)-4-(chloromethyl)cyclohexyl)methyl)-N-(4-(methylsulfonyl)phenyl)-1H-pyrazolo[3,4-d]pyrimidin-6-amine], the IC50 is less than 25 nM.

Still in this assay, the particulars now being: 3 nM CDK2/CCNE1, 1 mM ATP, 50 nM ULight-eIF4E-binding protein 1 (Thr37/46) peptide, 60 min at 23° C.; read-out: CDK2/CCNE IC50 >150 nM.
As for `CS(=O)(=O)c1ccc(Nc2ncc3cnn(CC4CCC(N5CCCC5)CC4)c3n2)cc1` (single isomer, unassigned; stereoisomer b) [Compound 59, N-(4-(methylsulfonyl)phenyl)-1-((4-(pyrrolidin-1-yl)cyclohexyl)methyl)-1H-pyrazolo[3,4-d]pyrimidin-6-amine (stereoisomer B)], the IC50 was more than 150 nM.

Regarding `CS(=O)(=O)c1ccc(Nc2ncc3cnn(CC4CCNCC4)c3n2)cc1` [Compound 7, N-(4-(methylsulfonyl)phenyl)-1-(piperidin-4-ylmethyl)-1H-pyrazolo[3,4-d]pyrimidin-6-amine hydrochloride], the IC50 is more than 150 nM.

As for `CS(=O)(=O)c1ccc(Nc2ncc3cnn(C[C@H]4CC[C@H](CCl)CC4)c3n2)cc1` [Compound 48, 1-(((1R,4R)-4-(chloromethyl)cyclohexyl)methyl)-N-(4-(methylsulfonyl)phenyl)-1H-pyrazolo[3,4-d]pyrimidin-6-amine], the IC50 was more than 150 nM.

As for `CN1CCN(CCn2ncc3cnc(Nc4ccc(S(C)(=O)=O)cc4)nc32)CC1` [Compound 15, 1-(2-(4-methylpiperazin-1-yl)ethyl)-N-(4-(methylsulfonyl)phenyl)-1H-pyrazolo[3,4-d]pyrimidin-6-amine], the IC50 was more than 150 nM.

`Cc1nn(CC2CCCCC2)c2nc(Nc3ccc(S(C)(=O)=O)cc3)ncc12` [Compound 19, 1-(cyclohexylmethyl)-3-methyl-N-(4-(methylsulfonyl)phenyl)-1H-pyrazolo[3,4-d]pyrimidin-6-amine]: the IC50 was more than 150 nM.

Regarding `CS(=O)(=O)c1ccc(Nc2ncc3cnn(CC4CCCCC4)c3n2)cc1F` [Compound 80, 1-(cyclohexylmethyl)-N-(3-fluoro-4-(methylsulfonyl)phenyl)-1H-pyrazolo[3,4-d]pyrimidin-6-amine], the IC50 was more than 150 nM.

With `CS(=O)(=O)c1ccc(Nc2ncc3cnn(CC4CCC(N5CC(O)C5)CC4)c3n2)cc1` (single isomer, unassigned; stereoisomer a) [Compound 64, 1-(4-((6-((4-(methylsulfonyl)phenyl)amino)-1H-pyrazolo[3,4-d]pyrimidin-1-yl)methyl)cyclohexyl)azetidin-3-ol (stereoisomer A)], the IC50 is more than 150 nM.

Consider `C#CC(=O)c1ccc(Nc2ncc3cnn(CC4CCCCC4)c3n2)cc1` [Compound 38, 1-(4-((1-(cyclohexylmethyl)-1H-pyrazolo[3,4-d]pyrimidin-6-yl)amino)phenyl)prop-2-yn-1-one], for which the IC50 is more than 150 nM.

Staying with this assay, now noted: column 25-150 nM; 3 nM CDK2/CCNE1, 1 mM ATP, 50 nM ULight-eIF4E-binding protein 1 (Thr37/46) peptide, 60 min at 23° C.; read-out: CDK2/CCNE IC50 25-150 nM.
Consider `CS(=O)(=O)c1ccc(Nc2ncc3cnn([C@@H]4CCC[C@H](C#N)C4)c3n2)cc1` [Compound 52, (1S,3R)-3-(6-((4-(methylsulfonyl)phenyl)amino)-1H-pyrazolo[3,4-d]pyrimidin-1-yl)cyclohexane-1-carbonitrile], for which the IC50 was in the range of 25 to 150 nM.

As to `CS(=O)(=O)c1ccc(Nc2ncc3cn(-c4ccc(C#N)cc4)nc3n2)cc1` (single isomer, unassigned) [Compound 83, 4-(6-((4-(methylsulfonyl)phenyl)amino)-2H-pyrazolo[3,4-d]pyrimidin-2-yl)benzonitrile], the IC50 lay within 25 to 150 nM.

Consider `CS(=O)(=O)c1ccc(Nc2ncc3cnn(C4CCC5(CC4)COC5)c3n2)cc1` [Compound 41, N-(4-(methylsulfonyl)phenyl)-1-(2-oxaspiro[3.5]nonan-7-yl)-1H-pyrazolo[3,4-d]pyrimidin-6-amine], for which the IC50 lay in the range of 25 to 150 nM.

Turning to `C=CS(=O)(=O)c1ncc(Nc2ncc3cnn(CC4CCCCC4)c3n2)cn1` [Compound 21, 1-(cyclohexylmethyl)-N-(2-(vinylsulfonyl)pyrimidin-5-yl)-1H-pyrazolo[3,4-d]pyrimidin-6-amine], the IC50 is 25 to 150 nM.

As for `CS(=O)(=O)c1ccc(Nc2ncc3cnn([C@@H]4CC[C@@H](O)C4)c3n2)cc1` [Compound 50, (1R,3R)-3-(6-((4-(methylsulfonyl)phenyl)amino)-1H-pyrazolo[3,4-d]pyrimidin-1-yl)cyclopentan-1-o1], the IC50 fell in the range of 25 to 150 nM.

The record behind these values is patent US20260306496A1, “CDK2 INHIBITOR PYRAZOLOPYRIMIDINE COMPOUNDS” (ALEKSIA THERAPEUTICS, INC., priority 2023, published 2026).
